{"source": "patent US20220273701A1", "about": "“TREATMENT FOR REDUCING ADVERSE EVENTS INCLUDING CHEMOTHERAPY DISCOMFORT AND OTHER CONDITIONS” (priority 2019, published 2022)", "origin": "cited, not measured here"}
{"compound": "Boric Acid [Boric Acid/Borate]", "pKa of Acid (or pH of 1:1 mixture)": 9.0}
{"compound": "O=C(O)[C@@H]1CCCN1", "note": "[Proline/Proline anion, Proline]", "pKa of Acid (or pH of 1:1 mixture)": 10.60}
{"compound": "Lysine anion [Lysine anion/Lysine dianion]", "pKa of Acid (or pH of 1:1 mixture)": 10.79}
{"compound": "O=S(=O)(O)CCCNC1CCCCC1", "note": "[N-cyclohexyl-3-aminopropanesulfonic acid]", "pKa of Acid (or pH of 1:1 mixture)": 10.4}
{"compound": "CC(C)[C@H](N)C(=O)O", "note": "[Valine/Valine anion, Valine]", "pKa of Acid (or pH of 1:1 mixture)": 9.62}
{"compound": "CC[C@H](C)[C@H](N)C(=O)O", "note": "[Isoleucine/Isoleucine anion, Isoleucine]", "pKa of Acid (or pH of 1:1 mixture)": 9.60}
{"compound": "Arginine anion [Arginine anion/Arginine dianion]", "pKa of Acid (or pH of 1:1 mixture)": 12.48}
{"compound": "Tris(hydroxymethyl)aminomethane", "pKa of Acid (or pH of 1:1 mixture)": 8.2}
{"compound": "NCC(=O)O", "note": "[Glycine/Glycine anion, Glycine]", "pKa of Acid (or pH of 1:1 mixture)": 9.60}
{"compound": "O=S(=O)(O)CCNC1CCCCC1", "note": "[N-Cyclohexyl-2-aminoethanesulfonic acid]", "pKa of Acid (or pH of 1:1 mixture)": 9.3}
{"compound": "C[C@H](N)C(=O)O", "note": "[Alanine/Alanine anion, Alanine]", "pKa of Acid (or pH of 1:1 mixture)": 9.69}
{"compound": "Tyrosine anion [Tyrosine anion/Tyrosine dianion]", "pKa of Acid (or pH of 1:1 mixture)": 10.07}
{"compound": "O=S(=O)(O)CCCNC(CO)(CO)CO", "note": "[tris(hydroxymethyl)methylamino]propanesulfonic acid]", "pKa of Acid (or pH of 1:1 mixture)": 8.55}
{"compound": "N[C@@H](CS)C(=O)O", "note": "[Cysteine/Cysteine anion, Cysteine]", "pKa of Acid (or pH of 1:1 mixture)": 10.78}
